Source: article PMC5307958 (Scientific Reports, 2017)
Bridges are numbered along the chain shown (N, C = ends). Where no end group is shown, it is not given here.

Experiments:
[1] = biological target: T1, human BKα channel (ZERO isoform) expressed in HEK293 cells (Homo sapiens, UniProt Q12791); experiment: Patch-clamp recording, inside-out patches, extracellular application; type: cell-based; conditions: for effect on Po (post vs. pre peptide): 500 nM linear (reduced) LS3, extracellular, any voltage, compared with 500 nM cyclic LS3
T1 construct: expressed in transfected cells; host or cells: HEK293 (ATCC), transient transfection with Lipofectamine 2000; EGFP cotransfected as a separate marker
T1 sequence (Q12791 1-1178 isoform Q12791-5): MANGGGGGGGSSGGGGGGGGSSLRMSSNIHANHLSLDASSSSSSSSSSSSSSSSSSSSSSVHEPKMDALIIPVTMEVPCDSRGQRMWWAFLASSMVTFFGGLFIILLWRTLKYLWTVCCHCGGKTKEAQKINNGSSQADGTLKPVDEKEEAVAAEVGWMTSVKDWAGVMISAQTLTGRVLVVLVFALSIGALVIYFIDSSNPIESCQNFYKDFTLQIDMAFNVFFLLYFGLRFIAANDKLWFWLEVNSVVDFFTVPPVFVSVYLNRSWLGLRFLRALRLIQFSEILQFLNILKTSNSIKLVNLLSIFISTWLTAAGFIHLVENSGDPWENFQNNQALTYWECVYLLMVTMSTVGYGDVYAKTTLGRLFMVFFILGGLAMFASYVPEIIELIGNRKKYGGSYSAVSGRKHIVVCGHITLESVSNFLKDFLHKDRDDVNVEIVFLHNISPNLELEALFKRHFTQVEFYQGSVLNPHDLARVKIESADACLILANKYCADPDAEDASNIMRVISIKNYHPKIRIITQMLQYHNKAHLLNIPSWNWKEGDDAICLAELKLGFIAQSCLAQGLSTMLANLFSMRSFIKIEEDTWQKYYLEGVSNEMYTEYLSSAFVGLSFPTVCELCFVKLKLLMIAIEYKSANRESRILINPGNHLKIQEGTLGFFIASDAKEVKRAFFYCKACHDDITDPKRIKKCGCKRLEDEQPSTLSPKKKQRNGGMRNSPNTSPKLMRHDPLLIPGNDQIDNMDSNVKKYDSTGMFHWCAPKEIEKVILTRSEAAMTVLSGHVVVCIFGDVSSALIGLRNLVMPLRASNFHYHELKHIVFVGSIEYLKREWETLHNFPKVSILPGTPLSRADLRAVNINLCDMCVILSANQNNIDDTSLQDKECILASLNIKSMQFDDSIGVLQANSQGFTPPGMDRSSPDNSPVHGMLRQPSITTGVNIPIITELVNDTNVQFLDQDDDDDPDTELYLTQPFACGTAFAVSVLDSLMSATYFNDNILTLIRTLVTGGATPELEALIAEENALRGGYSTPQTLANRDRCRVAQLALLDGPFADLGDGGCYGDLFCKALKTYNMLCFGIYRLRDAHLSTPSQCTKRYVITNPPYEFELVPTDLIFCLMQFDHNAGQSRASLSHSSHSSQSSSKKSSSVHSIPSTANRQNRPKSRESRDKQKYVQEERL
Protocol: HEK293 cells (ATCC, Manassas, VA) were grown according to standard procedures. Cells were cultured at 37 °C in a 5% CO2 atmosphere in Dulbecco’s modified Eagle’s medium with L-glutamine, sodium pyruvate and 10% fetal bovine serum (Invitrogen). Cell lines were split with trypsin/EDTA in Hanks’ balanced salt solution (Invitrogen) up to 25–30 cycles. For phage display, stable lines stably expressed rSK2 or hBKα ZERO isoform. Cells were transfected (Lipofectamine 2000, Invitrogen) with hGlyRα1 and used 48 hours later. For electrophysiological recordings, cells were transfected with hBKα ZERO isoform. Enhanced green fluorescent protein (EGFP) was cotransfected as a marker. Electrophysiological recordings were made 16–72 h after transfection. Although the profile of BK channel composition varies from tissue to tissue, the ZERO BK channel splice variant is widely expressed, particularly in the nervous system, serving as a representative form for studying the modulation of BK channel gating.
Voltage-clamp recordings were performed at room temperature (22–24 °C) using an inside-out configuration on patches pulled from HEK293 cells. The extracellular solution contained the following (in mM): 2 KCl, 136 KOH, 20 HEPES, 2 MgCl2, adjusted to pH 7.2 with MeSO3H. In order to apply peptide to the extracellular surface, patch electrodes (7–20 MΩ in resistance) were tip-filled with normal extracellular solution and backfilled with extracellular solution containing LS3. Enough normal extracellular solution was included to provide at least five minutes of peptide-free recording (determined by plotting Po vs. time). The intracellular solution (in the bath) contained the following (in mM): 6 KCl, 132 KOH, 20 HEPES, adjusted to pH 7.2 with MeSO3H. To achieve 750 nM free Ca^2+, […] and 5 mM EGTA were included, a ratio verified by measurement with a Ca^2+-sensitive electrode. Voltage-clamp recordings made with an Axopatch 200 A amplifier and custom macros in IgorPro. Analysis was performed with QUB (http://www.qub.buffalo.edu), including Po, mean open time and three component exponential fits to closed dwell times. Group means±SEM for post-peptide measures were plotted relative to pre-peptide values and compared with pre values via planned paired t-tests.

[2] = cited from earlier work
From the text: A pharmacological agent must cross the BBB in order to act at CNS-located targets. […] Many ion channel-targeted peptides are regarded as having low BBB permeability due to the large difference between the lethal dose when administered peripherally versus centrally. For example, the LD50 for peripherally administered dendrotoxin is in the tens of mg/kg, while it is ten thousand fold l ...

[3] = test system: mouse inferior colliculus (auditory midbrain); experiment: Sound evoked activity within excitatory receptive field (eRF), topical application on dura
[4] = test system: auditory nerve and generators caudal to the IC; experiment: Auditory brainstem responses (ABR); type: in vivo, mouse
Protocol: (§1) The temperature was maintained near 25 °C.
ABR recordings were acquired after the mice were anesthetized with ketamine (120 mg/kg) and xylazine (10 mg/kg) I.P., and respiration was monitored throughout to determine when additional supplemental doses were needed. Body temperature was kept constant at 37 °C using a feedback controlled heating pad (Physitemp TCAT2-LV Controller, Clifton, NJ). Stimuli and recordings were generated digitally and controlled using a TDT RZ6 Multi-I/O Processor and their BioSig/SigGen software. Acoustic signals were played through a multi-field (MF1) magnetic speaker (TDT, Alachua, FL) with a total harmonic distortion < = 1% from 1 kHz to 50 kHz, centered 0° azimuth in regards to the animal at a distance of 10 cm from the ear pinna. Tone bursts were presented at frequencies of 6, 12, 16, 20, 24, and 36 kHz (3 ms duration, 1 ms rise/fall time, alternating polarity) at a rate of 29 per second, attenuated in 5 dB steps from 80 dB SPL to 15 dB below threshold or 5 dB SPL, whichever was lower. Threshold was determined by visual inspection as the lowest intensity level which produced a defined wave in both replicates. All signals were calibrated using a Larsen Davis preamplifier, model 2221, with a 1/4″ microphone and a Larson Davis CAL200 Precision Acoustic Calibrator (PCB Piezotronics, Inc., Depew, NY). ABR recordings were acquired using a TDT RA4LI low-impedance digital headstage and RA4PA Medusa preamp with the active (noninverting) electrode inserted at the vertex, the reference (inverting) electrode below the left ear, and the ground electrode below the right ear. The responses were amplified (20×), filtered (300 Hz–3 kHz), and averaged using BioSig software and the System III hardware (TDT) data-acquisition system. A total of 256 tone burst signal and 150 GIN signal recordings were replicated for each acquisition, and muscle artifacts exceeding 7 μV were rejected from the averaged response. All recordings took place in a soundproof booth lined with echo-attenuating acoustic foam. ABR waveforms were analyzed using a custom MatLab program that automatically determined peak latencies and amplitudes in combination with secondary verification by an experimenter blind to the treatment group.

[5] = Blood-brain barrier crossing inferred from functional activity in the IC; type: in vivo, mouse; conditions: inferred from suppression of sound evoked activity after topical (dura) or systemic (0.3 mg/kg I.P.) administration
Protocol: as §1

[6] = test system: BK channel; conditions: small molecule BK channel blocker; cited from earlier work
From the text: CNS pharmacological applications favor pharmaceutical agents with high affinity, specificity, amenability to large-scale synthesis and BBB permeability. Peptide drugs have the potential for high affinity and specific binding to ion channel targets, as shown by voltage-gated potassium channel (Kv) peptide toxins. In addition to natural products, phage display screens have successfully selected peptides with high target affinity. For example, a phage display screen of scorpion toxin derivatives selected a novel peptide that blocks the Kv3.1 channel in the nanomolar range[41]. Here, a phage displ ...

[7] = biological target: T2, human BKα channel (ZERO isoform) (human) (UniProt O95259)
T2 sequence: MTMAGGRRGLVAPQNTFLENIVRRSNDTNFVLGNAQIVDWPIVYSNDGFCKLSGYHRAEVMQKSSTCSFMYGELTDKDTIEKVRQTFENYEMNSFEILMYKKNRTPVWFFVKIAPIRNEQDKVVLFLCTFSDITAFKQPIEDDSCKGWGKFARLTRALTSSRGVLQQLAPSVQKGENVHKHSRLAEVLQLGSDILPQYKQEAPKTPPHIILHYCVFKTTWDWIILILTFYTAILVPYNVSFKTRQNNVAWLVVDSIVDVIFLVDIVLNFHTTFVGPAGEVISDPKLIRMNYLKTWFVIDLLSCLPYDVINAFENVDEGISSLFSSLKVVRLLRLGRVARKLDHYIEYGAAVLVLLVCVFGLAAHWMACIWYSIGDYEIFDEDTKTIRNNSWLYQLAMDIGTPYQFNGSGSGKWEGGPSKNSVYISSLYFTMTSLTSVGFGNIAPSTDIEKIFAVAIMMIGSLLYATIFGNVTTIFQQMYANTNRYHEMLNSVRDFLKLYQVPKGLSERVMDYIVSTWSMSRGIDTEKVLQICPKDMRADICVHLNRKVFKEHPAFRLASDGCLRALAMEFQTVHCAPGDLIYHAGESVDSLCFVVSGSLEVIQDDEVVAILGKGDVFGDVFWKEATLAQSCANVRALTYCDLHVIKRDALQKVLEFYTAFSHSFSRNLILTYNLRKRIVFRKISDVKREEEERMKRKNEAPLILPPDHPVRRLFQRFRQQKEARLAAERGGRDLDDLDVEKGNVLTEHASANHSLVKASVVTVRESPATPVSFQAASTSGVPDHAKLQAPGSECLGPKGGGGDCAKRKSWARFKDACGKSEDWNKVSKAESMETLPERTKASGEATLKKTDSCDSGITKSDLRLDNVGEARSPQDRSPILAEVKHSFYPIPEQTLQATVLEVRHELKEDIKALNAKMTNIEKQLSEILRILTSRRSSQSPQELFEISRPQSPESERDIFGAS

[8] = biological target: comprehensive panel of mammalian CNS-based proteins; experiment: radioligand binding; competition binding assays (NIMH PDSP): 10 microM LS3 against known radioligands for 33 targets; percent inhibition measured 4 times for each receptor; less than 50% inhibition considered insignificant

linearized version of LS3: linearized version of LS3 without the disulfide bridge (CRRGLVQVC)
effect on Po (post vs. pre peptide) [1]: no significant reduction in Po at any voltage
effect on Po (post vs. pre peptide) ([1]; listed as linear peptide): lack of effect
effect on Po (post vs. pre peptide) ([1]; listed as reduced form of LS3): did not alter Po
potency relative to cyclic LS3 ([1]; linearized version without the disulfide bridge, Po): less potent

dendrotoxin
LD50, intraventricular injection, relative to peripheral [2]: ten thousand fold lower
LD50, peripherally administered [2]: tens

apamin: a small Kv toxin at 18 aa (CNCKAPETALCARRCQQH-NH2; disulfide 1-11, 3-15; ends not checked; UniProt P01500 28-45, looked up)
CNS availability ([2]; in contrast to many ion channel-targeted peptides): higher CNS availability
effect on learning and memory-related behaviors ([2]; intraperitoneal injection at a similar concentration used in this paper): alter learning and memory-related behaviors

CC(C)(O)[C@H]1O[C@H]2CC[C@@]3(C)[C@@](O)(CC[C@H]4Cc5c([nH]c6ccccc56)[C@@]43C)C2=CC1=O [paxilline, reference compound]
time course of suppression of sound evoked activity ([3]; 1 μL of 10 μM paxilline, 51 units, F(12,430) = 4.146 P < 0.0001): suppression of sound evoked activity increasing out to 6 hours
reduction in sound driven activity ([3]; 1 μL of 10 μM paxilline, 5 hours post-application, N = 5 mice): 87%
reduction of maximum spike counts ([3]; 1 μL of 10 μM paxilline, within 30 minutes, 51 units): 50%
maximum spike counts ([3]; 1 μL of 10 μM paxilline, within 30 minutes, baseline 375, 51 units): 180 spikes
reduction of sound evoked driven activity within the RF ([3]; 1 μL of 10 μM stock, from baseline pre-peptide, Fig. 5A,B representative eRFs): approximately 50%
mean ABR thresholds ([4]; 4 hours post I.P. injection vs. baseline, tone bursts): No significant effect
ABR peak 1 (P1) amplitude by intensity functions ([4]; systemic (I.P.) injection, 4 hrs vs. baseline, auditory nerve): Neither BK channel modulator reduced auditory nerve (P1)
ABR peak 4 (P4) amplitude by intensity functions ([4]; systemic (I.P.) injection, 4 hrs vs. baseline, generators caudal to the IC (brainstem)): Neither BK channel modulator reduced auditory nerve (P1) or brainstem (P4) amplitudes
ability to cross the BBB [5]: can cross the BBB
IC50 (BK channel block) [6]: low nanomolar

CRRGLVQVC (disulfide 1-9) [LS3 (… with a 1–9 disulfide bridge)]
post-peptide Po relative to pre-peptide Po at 40 mV, 500 nM LS3 [7]: 0.54
Ki [8]: > 10 µM
percent inhibition of radioligand binding at 10 microM LS3 [8]: < 50%
